Results published in US10442848B2, “Oxyntomodulin derivatives and pharmaceutical composition for treating obesity comprising the same” (HANMI SCIENCE CO., LTD, priority 2011, dated 2019).

Key:
human glucagon receptor = biological target: T1, human glucagon receptor (Homo sapiens, UniProt P47871); experiment: cAMP response in CHO cell line expressing human glucagon receptor; type: cell-based; details: read-out: EC50 CHO/GCGR
T1 construct: expressed in transfected cells; host or cells: CHO DG44
Description: The PCR product was cloned into the known animal cell expression vector x0GC/dhfr to prepare a recombinant vector x0GC/GCGR.
CHO DG44 cell line cultured in DMEM/F12 (10% FBS) medium was transfected with the recombinant vector x0GC/GCGR using LIPOFECTAMINE®, and cultured in a selection medium containing 1 mg/mL G418 and 10 nM methotraxate.
The cultured cells were washed with KRB buffer and suspended in 40 ml of KRB buffer containing 1 mM IBMX, and left at room temperature for 5 minutes. […] Then, 20 mL of cell lysis buffer was added for cell lysis, and the cell lysates were applied to a cAMP assay kit (Molecular Device, USA) to measure cAMP concentrations. EC50 values were calculated therefrom, and compared to each other.

[1] = taken for 1 year; cited from earlier work

T1 sequence (P47871 26-477): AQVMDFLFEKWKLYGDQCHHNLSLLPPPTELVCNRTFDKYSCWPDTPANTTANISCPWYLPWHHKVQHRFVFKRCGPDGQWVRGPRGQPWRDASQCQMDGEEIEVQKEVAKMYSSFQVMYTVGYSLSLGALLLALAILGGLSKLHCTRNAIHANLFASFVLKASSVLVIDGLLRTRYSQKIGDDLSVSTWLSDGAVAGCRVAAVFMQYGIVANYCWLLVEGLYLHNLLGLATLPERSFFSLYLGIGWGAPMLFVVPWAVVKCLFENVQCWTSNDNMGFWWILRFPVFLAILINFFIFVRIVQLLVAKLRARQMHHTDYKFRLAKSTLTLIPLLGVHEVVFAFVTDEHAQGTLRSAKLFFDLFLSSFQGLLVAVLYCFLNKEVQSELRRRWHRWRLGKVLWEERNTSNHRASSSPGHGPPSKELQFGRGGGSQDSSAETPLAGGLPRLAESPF

| EC50 (human glucagon receptor) [nM] | Structure (SMILES) | weight loss [1] [kg] |
| --- | --- | --- |
| 6.95 | CSCC[C@H](NC(=O)[C@H](CC(C)C)NC(=O)[C@H](Cc1c[nH]c2ccccc12)NC(=O)[C@H](CCC(N)=O)NC(=O)[C@@H](NC(=O)[C@H](Cc1ccccc1)NC(=O)[C@H](CCC(=O)O)NC(=O)[C@H](CCCCN)NC(=O)[C@H](C)NC(=O)[C@H](CCCNC(=N)N)NC(=O)[C@H](CCCCN)NC(=O)[C@H](CCC(=O)O)NC(=O)[C@H](CC(=O)O)NC(=O)[C@H](CC(C)C)NC(=O)[C@H](Cc1ccc(O)cc1)NC(=O)[C@H](CCCCN)NC(=O)[C@H](CO)NC(=O)[C@H](Cc1ccc(O)cc1)NC(=O)[C@H](CC(=O)O)NC(=O)[C@H](CO)NC(=O)[C@@H](NC(=O)[C@H](Cc1ccccc1)NC(=O)[C@@H](NC(=O)CNC(=O)[C@H](CCC(N)=O)NC(=O)C(C)(C)NC(=O)[C@@H](N)Cc1c[nH]cn1)[C@@H](C)O)[C@@H](C)O)C(C)C)C(=O)N[C@@H](CC(N)=O)C(=O)N[C@H](C(=O)N[C@@H](CS)C(=O)O)[C@@H](C)O [SEQ ID NO. 24] | – |
| 1.3 | CSCC[C@H](NC(=O)[C@H](CC(C)C)NC(=O)[C@H](Cc1c[nH]c2ccccc12)NC(=O)[C@H](CCC(N)=O)NC(=O)[C@@H](NC(=O)[C@H](Cc1ccccc1)NC(=O)[C@H](CCC(=O)O)NC(=O)[C@@H]1CCCCNC(=O)CC[C@H](NC(=O)[C@H](CC(=O)O)NC(=O)[C@H](CC(C)C)NC(=O)[C@H](Cc2ccc(O)cc2)NC(=O)[C@H](CCCCN)NC(=O)[C@H](CO)NC(=O)[C@H](Cc2ccc(O)cc2)NC(=O)[C@H](CC(=O)O)NC(=O)[C@H](CO)NC(=O)[C@@H](NC(=O)[C@H](Cc2ccccc2)NC(=O)[C@@H](NC(=O)CNC(=O)[C@H](CCC(N)=O)NC(=O)C(C)(C)NC(=O)[C@@H](N)Cc2c[nH]cn2)[C@@H](C)O)[C@@H](C)O)C(=O)N[C@@H](CCCCN)C(=O)N[C@@H](CCCNC(=N)N)C(=O)N[C@@H](C)C(=O)N1)C(C)C)C(=O)N[C@@H](CC(N)=O)C(=O)N[C@H](C(=O)N[C@@H](CS)C(=O)O)[C@@H](C)O [SEQ ID NO. 25] | – |
| – | CCCCCCCCCCC[C@@H](C[C@@H]1OC(=O)[C@H]1CCCCCC)OC(=O)[C@H](CC(C)C)NC=O [orlistat] | 4 |
